The supplement of paper PMC11061612

Columns and labels:
A2058 (Melanoma) = assay: Bliss excess, mean over the matrix (fraction); higher = more synergy
Summary of the method: (§1)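 Bliss excess equals the observed combination effect minus the expected value EA + EB − EA·EB, where EA and EB are the effects of each agent alone. Combination Emax is the second-highest inhibition within the matrix. Inhibition was scaled from CellTiter-Glo 2.0 luminescence, with 0 set by vehicle wells and 1 by blank wells, after 72 hours of two-drug dosing of cells plated in 1536-well plates.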

[1] = test system: CAL-120 (Breast Carcinoma); assay: as above
Summary of the method: as §1

[2] = test system: LB996-RCC (Kidney Carcinoma); assay: as above
Summary of the method: as §1

[3] = test system: PSN1 (Pancreatic Carcinoma); assay: combination Emax (second highest fraction inhibited in the dose matrix, 72 h); higher = more inhibition; extreme values may be limits of the assay
Summary of the method: as §1

IST-MES1 (Mesothelioma) = assay: as above
Summary of the method: as §1

[4] = test system: NCI-H23 (Lung Adenocarcinoma); assay: as above
Summary of the method: as §1

[5] = test system: SHP-77 (Small Cell Lung Carcinoma); assay: as above
Summary of the method: as §1

[6] = test system: SU-DHL-10 (B-Cell Non-Hodgkin's Lymphoma); assay: as above
Summary of the method: as §1

[7] = test system: OPM-2 (Plasma Cell Myeloma); assay: as above
Summary of the method: as §1

[8] = test system: MFE-280 (Endometrial Carcinoma); assay: as above
Summary of the method: as §1

[9] = test system: PANC-03-27 (Pancreatic Carcinoma); assay: as above
Summary of the method: as §1

[10] = test system: COLO-680N (Esophageal Squamous Cell Carcinoma); assay: as above
Summary of the method: as §1

WM278 (Melanoma) = assay: as above
Summary of the method: as §1

GB-1 (Glioblastoma) = assay: as above
Summary of the method: as §1

[11] = test system: REH (B-Lymphoblastic Leukemia); assay: as above
Summary of the method: as §1

[12] = test system: NCI-H446 (Small Cell Lung Carcinoma); assay: as above
Summary of the method: as §1

[13] = test system: FADU (Head and Neck Carcinoma); assay: as above
Summary of the method: as §1

[14] = test system: RERF-LC-Sq1 (Squamous Cell Lung Carcinoma); assay: as above
Summary of the method: as §1

[15] = test system: PC-3_[JPC-3] (Lung Adenocarcinoma); assay: as above
Summary of the method: as §1

[16] = test system: NCI-H2342 (Lung Adenocarcinoma); assay: as above
Summary of the method: as §1

Row | Compound | Bliss excess (A2058 (Melanoma)) | Bliss excess [1] | Bliss excess [2] | combination Emax [3] | combination Emax (IST-MES1 (Mesothelioma)) | combination Emax [4] | combination Emax [5] | combination Emax [6] | combination Emax [7] | combination Emax [8] | combination Emax [9] | combination Emax [10] | combination Emax (WM278 (Melanoma)) | combination Emax (GB-1 (Glioblastoma)) | combination Emax [11] | combination Emax [12] | combination Emax [13] | combination Emax [14] | combination Emax [15] | combination Emax [16]
1 | CN(C)CCCOc1ccc(-c2ccc3ncc4c(c3c2)n(C2CCOCC2)c(=O)n4C)cn1 [AZD0156] + C=CCn1c(=O)c2cnc(Nc3ccc(N4CCN(C)CC4)cc3)nc2n1-c1cccc(C(C)(C)O)n1 [AZD1775] (first compound max 1 µM, partner max 1 µM) | -0.0313 | -0.0638 | -0.0219 | 0.462 | 0.207 | 0.815 | 0.419 | 0.936 | 0.805 | 0.55 | 0.91 | 0.196 | 0.228 | 0.263 | 0.757 | 0.801 | 0.617 | 0.758 | 0.393 | 0.162
2 | CN(C)CCCOc1ccc(-c2ccc3ncc4c(c3c2)n(C2CCOCC2)c(=O)n4C)cn1 [AZD0156] + CCN(CCO)CCCOc1ccc2c(Nc3cc(CC(=O)Nc4cccc(F)c4)[nH]n3)ncnc2c1 [AZD2811] (first compound max 1 µM, 7x7, partner max 1 µM) | -0.0201 | -0.0164 | 0.0375 | 0.362 | 0.172 | 0.151 | 0.237 | 0.835 | 0.436 | 0.47 | 0.2 | 0.0884 | 0.0859 | 0.0845 | 0.481 | 0.838 | 0.228 | 0.306 | 0.101 | 0.145
3 | CN(C)CCCOc1ccc(-c2ccc3ncc4c(c3c2)n(C2CCOCC2)c(=O)n4C)cn1 [AZD0156] + C[C@@H]1COCCN1C2=NC(=NC(=C2)C3(CC3)[S@](=N)(=O)C)C4=C5C=CNC5=NC=C4 [AZD6738] (first compound max 1 µM, 7x7, partner max 10 µM) | -0.0135 | 0.0142 | 0.0089 | 0.504 | 0.176 | 0.786 | 0.665 | 0.979 | 0.776 | 0.335 | 0.862 | 0.267 | 0.341 | 0.392 | 0.625 | 0.779 | 0.758 | 0.843 | 0.329 | 0.166
4 | CN(C)CCCOc1ccc(-c2ccc3ncc4c(c3c2)n(C2CCOCC2)c(=O)n4C)cn1 [AZD0156] + O=C(c1cc(Cc2n[nH]c(=O)c3ccccc23)ccc1F)N1CCN(C(=O)C2CC2)CC1 [Olaparib] (first compound max 3 µM, partner max 3 µM) | 0.151 | 0.0047 | 0.0071 | 0.228 | 0.212 | 0.117 | 0.209 | 0.342 | 0.231 | 0.312 | 0.225 | 0.16 | 0.209 | 0.238 | 0.457 | 0.362 | 0.258 | 0.418 | 0.181 | 0.0678
5 | C=CCn1c(=O)c2cnc(Nc3ccc(N4CCN(C)CC4)cc3)nc2n1-c1cccc(C(C)(C)O)n1 [AZD1775] + C1CN(CCC1(C(=O)N[C@@H](CCO)C2=CC=C(C=C2)Cl)N)C3=NC=NC4=C3C=CN4 [Capivasertib] (first compound max 3 µM, partner max 3 µM) | 0.0217 | -0.0265 | -0.0587 | 0.763 | 0.292 | 0.908 | 0.885 | 1 | 0.967 | 0.451 | 0.771 | 0.306 | 0.389 | 0.625 | 0.93 | 0.972 | 0.644 | 0.844 | 0.577 | 0.282
6 | C=CCn1c(=O)c2cnc(Nc3ccc(N4CCN(C)CC4)cc3)nc2n1-c1cccc(C(C)(C)O)n1 [AZD1775] + C[C@@H]1COCCN1C2=NC(=NC(=C2)C3(CC3)[S@](=N)(=O)C)C4=C5C=CNC5=NC=C4 [AZD6738] (first compound max 1 µM, partner max 10 µM) | 0.0553 | 0.0021 | 0.011 | 0.764 | 0.597 | 0.913 | 0.827 | 1 | 0.893 | 0.627 | 0.939 | 0.529 | 0.44 | 0.595 | 0.955 | 0.951 | 0.875 | 0.859 | 0.537 | 0.426
7 | C=CCn1c(=O)c2cnc(Nc3ccc(N4CCN(C)CC4)cc3)nc2n1-c1cccc(C(C)(C)O)n1 [AZD1775] + O=C(c1cc(Cc2n[nH]c(=O)c3ccccc23)ccc1F)N1CCN(C(=O)C2CC2)CC1 [Olaparib] (first compound max 1 µM, partner max 10 µM) | -0.0049 | 0.0027 |  | 0.478 | 0.334 | 0.761 | 0.443 | 0.962 | 0.864 | 0.601 | 0.928 | 0.283 | 0.209 | 0.318 | 0.835 | 0.778 | 0.591 | 0.675 | 0.458 | 0.229
8 | CN(CCO)CC[C@H](CSc1ccccc1)Nc1ccc(S(=O)(=O)NC(=O)c2ccc(N3CCC([C@@H](O)c4ccccc4-c4ccc(Cl)cc4)CC3)cc2)cc1S(=O)(=O)C(F)(F)F [AZD4320] + C1CN(CCC1(C(=O)N[C@@H](CCO)C2=CC=C(C=C2)Cl)N)C3=NC=NC4=C3C=CN4 [Capivasertib] (first compound max 1 µM, 7x7, partner max 3 µM) | -0.032 | -0.0649 | 0.0014 | 0.276 | 0.0905 | 0.093 |  | 0.97 | 0.955 | 0.88 | 0.25 | 0.0496 | 0.599 | 0.117 | 1 | 0.78 | 0.116 | 0.667 | 0.152 | 0.3
9 | CN(CCO)CC[C@H](CSc1ccccc1)Nc1ccc(S(=O)(=O)NC(=O)c2ccc(N3CCC([C@@H](O)c4ccccc4-c4ccc(Cl)cc4)CC3)cc2)cc1S(=O)(=O)C(F)(F)F [AZD4320] + Cn1cnc2c(F)c(Nc3ccc(Br)cc3Cl)c(C(=O)NOCCO)cc21 [Selumetinib] (first compound max 1 µM, 7x7, partner max 3 µM) |  | 0.0577 | -0.0445 | 0.664 | 0.257 | 0.435 | 0.613 | 0.617 | 0.556 | 0.705 | 0.793 | 0.246 | 0.918 | 0.519 | 0.992 | 0.758 | 0.832 | 0.49 | 0.571 | 0.423
10 | COc1nnc2ccc(N3CCC(c4ccc(OCCN5CCN(C)C(=O)[C@H]5C)cc4)CC3)nn12 [AZD5153] + CN(CC[C@H](CSC1=CC=CC=C1)NC2=C(C=C(C=C2)S(=O)(=O)NC(=O)C3=CC=C(C=C3)N4CCC(CC4)[C@H](C5=CC=CC=C5C6=CC=C(C=C6)Cl)O)S(=O)(=O)C(F)(F)F)CCO [AZD4320] (first compound max 1 µM, 7x7, partner max 1 µM) | -0.0062 | 0.0415 | 0.0253 |  |  | 0.766 |  | 1 |  |  |  |  | 0.829 | 0.292 |  | 0.984 | 0.45 | 0.706 |  | 
11 | CS(=O)(=O)CCNCc1ccc(-c2ccc3ncnc(Nc4ccc(OCc5cccc(F)c5)c(Cl)c4)c3c2)o1 [Lapatinib] + NC1(c2ccc(-c3nc4ccn5c(=O)[nH]nc5c4cc3-c3ccccc3)cc2)CCC1 [MK-2206] (first compound max 10 µM, 7x7, partner max 10 µM) | -0.049 |  |  | 0.562 | 0.638 | 0.338 | 0.633 |  | 0.972 | 0.911 | 0.76 | 0.467 |  |  | 0.957 | 0.962 |  |  | 0.927 | 0.196
12 | CC(=O)c1c(C)c2cnc(Nc3ccc(N4CCNCC4)cn3)nc2n(C2CCCC2)c1=O [Palbociclib] + CN(CC[C@H](CSC1=CC=CC=C1)NC2=C(C=C(C=C2)S(=O)(=O)NC(=O)C3=CC=C(C=C3)N4CCC(CC4)[C@H](C5=CC=CC=C5C6=CC=C(C=C6)Cl)O)S(=O)(=O)C(F)(F)F)CCO [AZD4320] (first compound max 10 µM, 7x7, partner max 1 µM) | -0.0261 | -0.0614 | -0.0652 |  |  | 0.312 |  | 0.995 |  |  |  |  | 0.711 | 0.209 |  | 0.887 | 0.356 | 0.575 |  | 
13 | CCc1c2c(nc3ccc(O)cc13)-c1cc3c(c(=O)n1C2)COC(=O)[C@]3(O)CC [SN-38] + O=C(c1cc(Cc2n[nH]c(=O)c3ccccc23)ccc1F)N1CCN(C(=O)C2CC2)CC1 [Olaparib] (first compound max 0.3 µM, 7x7, partner max 10 µM) | 0.038 | 0.0417 | -0.0651 | 0.753 | 0.63 |  | 0.567 |  | 0.734 | 0.785 | 0.839 | 0.386 | 0.627 | 0.781 | 1 | 0.905 | 0.996 | 0.672 | 0.825 | 0.236
